Source: patent US20250186442A1, “Obicetrapib and Ezetimibe Combination Treatment and Fixed Dose Pharmaceutical Compositions” (NewAmsterdam Pharma B.V., priority 2022, published 2025)

Experiments:
LDL-C [1] = experiment: ROSE2 phase 2b clinical trial - LDL-C; format: in vivo, human; conditions: for LDL-C Change from Baseline to Day 28, Mean / LDL-C Change from Baseline to Day 28, Median / LDL-C Change from Baseline to Day 84, Mean / LDL-C Change from Baseline to Day 84, Median / LDL-C Day 28, Mean / LDL-C Day 28, Median / LDL-C Day 84, Mean / LDL-C Day 84, Median / LDL-C Percent Change from Baseline to Day 28 (%), Mean / LDL-C Percent Change from Baseline to Day 28 (%), Median / LDL-C Percent Change from Baseline to Day 84 (%), Mean / LDL-C Percent Change from Baseline to Day 84 (%), Median: obicetrapib 10 mg, ezetimibe 10 mg
Experimental: The primary objective of this study is to evaluate the effect of obicetrapib 10 mg+ezetimibe 10 mg combination therapy compared with placebo, when used as an adjunct to high-intensity statin therapy, on LDL-C at Day 84.
The secondary objectives of this study include the following, in hierarchical order: • To evaluate the effect of obicetrapib 10 mg monotherapy compared with placebo, when used as an adjunct to high-intensity statin therapy, on LDL-C at Day 84; • To evaluate the effect of obicetrapib 10 mg+ezetimibe 10 mg combination therapy compared with placebo, when used as an adjunct to high-intensity statin therapy, on ApoB at Day 84; and • To evaluate the effect of obicetrapib 10 mg monotherapy compared with placebo, when used as an adjunct to high-intensity statin therapy, on ApoB at Day 84.
This study will be a placebo-controlled, double-blind, randomized, Phase 2 study to evaluate the efficacy, safety, and tolerability of obicetrapib 10 mg, both in combination with ezetimibe 10 mg and as monotherapy, as an adjunct to high-intensity statin therapy. This study will take place at approximately 20 sites in the United States.
Up to 2 weeks after the Screening Visit, participants will return to the site on Day 1 (Visit 2) and confirm study eligibility before being randomized and beginning treatment. Approximately 114 eligible participants (38 participants per treatment group) will be randomized in a 1:1:1 ratio to 1 of the following treatment groups: • Combination therapy: Obicetrapib 10 mg+ezetimibe 10 mg (administered as one 10 mg obicetrapib tablet and one 10 mg ezetimibe capsule); • Obicetrapib monotherapy: Obicetrapib 10 mg (administered as one 10 mg obicetrapib tablet and 1 placebo capsule); or • Placebo (administered as 1 placebo tablet and 1 placebo capsule).
During the 12-week Treatment Period, the assigned study drugs will be administered by the participants orally with water, once daily on Day 1 to Day 84 at approximately the same time each morning. Participants will return to the site on Day 28 (+2 days), Day 84 (+2 days), and Day 112 (+2 days) for efficacy, safety, and pharmacokinetic (PK) assessments. Participants, Investigators, the Clinical Research Organization (CRO), and the Sponsor will be blinded to all lipid results from Day 1 (Visit 2) for the first participant until all enrolled participants complete the Day 84 (End of Treatment) visit or are withdrawn from the study, in order to protect blinding to treatment assignment.
The primary efficacy endpoint is the percent change from Day 1 to Day 84 in LDL-C for the obicetrapib 10 mg+ezetimibe 10 mg combination treatment group compared with the placebo group.
The secondary efficacy endpoints include the following, in hierarchical order: • Percent change from Day 1 to Day 84 in LDL-C for the obicetrapib 10 mg monotherapy • treatment group compared with the placebo group; • Percent change from Day 1 to Day 84 in ApoB for the obicetrapib 10 mg+ezetimibe 10 mg • combination treatment group compared with the placebo group; and • Percent change from Day 1 to Day 84 in ApoB for the obicetrapib 10 mg monotherapy treatment group compared with the placebo group.
The exploratory efficacy endpoints include the following: • Percent change from Day 1 to Day 84 in non-HDL-C, VLDL-C, HDL-C, TG, ApoE, Lp(a), and HDL-ApoE for the obicetrapib 10 mg+ezetimibe 10 mg combination treatment group compared with the placebo group and for the obicetrapib 10 mg monotherapy treatment group compared with the placebo group; and • Proportion of participants at Day 84 that achieve LDL-C<2.6 mmol/L (<100 mg/dL), LDL-C<1.8 mmol/L (<70 mg/dL), and LDL-C<1.3 mmol/L (<50 mg/dL) for the obicetrapib 10 mg+ezetimibe 10 mg combination treatment group compared with the placebo group and for the obicetrapib 10 mg monotherapy treatment group compared with the placebo group. […]

LDL-C [2] = conditions: cited from earlier work

CCOC(=O)N1c2ccc(C(F)(F)F)cc2[C@@H](N(Cc2cc(C(F)(F)F)cc(C(F)(F)F)c2)c2ncc(OCCCC(=O)O)cn2)C[C@H]1CC [Obicetrapib, {4-[(2-{[3,5-bis(trifluoromethyl)benzyl][(2R,4S)-1-(ethoxycarbonyl)-2-ethyl-6-(trifluoromethyl)-1,2,3,4-tetrahydroquinolin-4-yl]amino}pyrimidin-5-yl)oxy]butanoic acid}]
LDL-C Change from Baseline to Day 28, Mean (LDL-C [1]; Exploratory Population): -43.0 mg/dL | LDL-C Change from Baseline to Day 28, Median (LDL-C [1]; Exploratory Population): -45.0 mg/dL | LDL-C Change from Baseline to Day 84, Mean (LDL-C [1]; Exploratory Population): -39.9 mg/dL | LDL-C Change from Baseline to Day 84, Median (LDL-C [1]; Exploratory Population): -38.5 mg/dL | LDL-C Day 28, Mean (LDL-C [1]; Exploratory Population): 57.6 mg/dL | LDL-C Day 28, Median (LDL-C [1]; Exploratory Population): 51.5 mg/dL | LDL-C Day 84, Mean (LDL-C [1]; Exploratory Population): 60.7 mg/dL | LDL-C Day 84, Median (LDL-C [1]; Exploratory Population): 55.5 mg/dL | LDL-C Percent Change from Baseline to Day 28 (%), Mean (LDL-C [1]; Exploratory Population): −43.59% | LDL-C Percent Change from Baseline to Day 28 (%), Median (LDL-C [1]; Exploratory Population): −43.90% | LDL-C Percent Change from Baseline to Day 84 (%), Mean (LDL-C [1]; Exploratory Population): −39.35% | LDL-C Percent Change from Baseline to Day 84 (%), Median (LDL-C [1]; Exploratory Population): −43.50% | median reduction in LDL-C (LDL-C [1]; ROSE2 phase 2b (NCT05266586), obicetrapib 10 mg with or without ezetimibe 10 mg): 39% | LDL-C Change from Baseline to Day 28, Mean (LDL-C [1]; mITT Population): -33.2 mg/dL | LDL-C Change from Baseline to Day 28, Median (LDL-C [1]; mITT Population): -35.0 mg/dL | LDL-C Change from Baseline to Day 84, Mean (LDL-C [1]; mITT Population): -21.3 mg/dL | LDL-C Change from Baseline to Day 84, Median (LDL-C [1]; mITT Population): -29.5 mg/dL | LDL-C Day 28, Mean (LDL-C [1]; mITT Population): 70.3 mg/dL | LDL-C Day 28, Median (LDL-C [1]; mITT Population): 56.0 mg/dL | LDL-C Day 84, Mean (LDL-C [1]; mITT Population): 82.7 mg/dL | LDL-C Day 84, Median (LDL-C [1]; mITT Population): 65.0 mg/dL | LDL-C Percent Change from Baseline to Day 28 (%), Mean (LDL-C [1]; mITT Population): −32.21% | LDL-C Percent Change from Baseline to Day 28 (%), Median (LDL-C [1]; mITT Population): −41.70% | LDL-C Percent Change from Baseline to Day 84 (%), Mean (LDL-C [1]; mITT Population): −18.92% | LDL-C Percent Change from Baseline to Day 84 (%), Median (LDL-C [1]; mITT Population): −32.35% | LDL-C reduction (LDL-C [2]; TA-8995-03, 10 mg daily dose, mild dyslipidemia): 45.4% | additional reduction in LDL-C (LDL-C [2]; obicetrapib 10 mg on top of atorvastatin 20 mg): 50.3%
